# Test system: subjects with RRMS
# Assay: BRAVO phase III trial: laquinimod vs placebo and Interferon β-1a (Avonex) reference arm
# Type: in vivo, human
# Procedure: A multinational, multicenter, randomized, parallel-group, clinical trial is performed in subjects with RRMS (“BRAVO”).
# Interferon β-1a (Avonex®) 30 mcg intramuscular injection once weekly (400 subjects).
# During the study, the following assessments are performed (regardless of the treatment assignment) at the specified time points: • 1. Vital signs (temperature, pulse, blood pressure) are measured at each study visit. • 2. A physical examination is performed at months −1 (screening), (baseline) 1, 3, 6, 12, 18 and 24 (termination/early discontinuation). • 3. The following safety clinical laboratory tests are performed: • a. Hematology and Complete blood count (CBC) with differential—at all scheduled visits. A reticulocyte count is added to the CBC at months 0 (baseline) and 24 (termination/early discontinuation) as well as in occasions of significant decrease in hemoglobin. • b. Serum chemistry (including electrolytes, liver enzymes, direct and total bilirubin, CPK and pancreatic amylase), and urinalysis—at all scheduled visits. • c. Serum TSH, T3 and Free T4 are measured at months 0 (baseline), 6, 12, 18 and 24 (termination/early discontinuation). • d. A rapid urine β-hCG test is performed in women of child-bearing potential at baseline (month 0; all subjects) and at each scheduled study visit thereafter (at site; only subjects assigned to oral treatment). • e. β-hCG in women of child-bearing potential are performed at each study visit. • f. Starting after visit Month 3 a rapid urine β-hCG test is performed in women of child-bearing potential (only those assigned to oral treatment) every 28 (±2) days. The subject is contacted by telephone with 72 hours after the test is scheduled to be performed and asked specific questions regarding the test. In case of suspected pregnancy (positive urine β-hCG test result), the caller makes sure that the study drug has been discontinued and the subject is instructed to arrive to the site as soon as possible with all study drugs. • 4. Markers of inflammation (serum conventional C-reactive protein and fibrinogen) are measured at all scheduled visits. • 5. […] These samples are collected at months 0, 12 and 24. • 6. […] In case of suspected thrombotic event, the subject is requested to arrive at the site immediately for further evaluation. […] ECG is performed at months −1 (screening; additional recording, up to 30 minutes apart are performed if QTc is >450 msec), 0 (baseline; three recordings, 15 minute apart), 1, 2, 3, 6, 12, 18 and 24 (termination/early discontinuation). • 8. Chest X-ray is performed at month −1 (screening) (if not performed within 6 months prior to screening visit). • 9. Adverse Events (AEs) are monitored throughout the study and recorded. • 10. Concomitant medications are monitored throughout the study. • 11. Neurological evaluations, including Neurostatus [Functional Systems (FS), Expanded Disability Status Scale (EDSS; Converted scale), Ambulation Index (AI)] and Timed-25 foot walk test are performed at months −1 (screening), 0 (baseline) and every 3 months thereafter, until termination/early discontinuation. (At screening visit, the Timed-25 foot walk test is performed 3 times, for practicing purposes, as a part of the MSFC). • 12. MS Functional Composite (MSFC) is assessed at months −1 (screening) (three practices for training purposes only), 0 (baseline), 6, 12, 18 and 24 (termination/early discontinuation). • 13. The general health status is assessed by the EuroQoL (EQ5D) questionnaire at months 0 (baseline) and 24 (termination/early discontinuation). • 14. The general health status and quality of life parameters are assessed by the Short-Form general health survey (SF-36) subject-reported questionnaire at month 0 (baseline) and every 6 months thereafter until termination/early discontinuation, inclusive. • 15. Subject-reported fatigue is assessed by the Modified Fatigue Impact Scale (MFIS) at months 0 (baseline), 2, 6, 12, 18 and 24 (termination/early discontinuation). • 16. […]
# [1] = 0.6 mg daily oral compared to weekly 30 mcg Interferon β-1a (Avonex)
smiles,measurement,setting,value
"CCN(C(=O)c1c(O)c2c(Cl)cccc2n(C)c1=O)c1ccccc1 [Laquinimod, laquinimod]","Accumulation of physical disability (MSFC score, time to confirmed progression of EDSS)",0.6 mg daily oral,reduces the accumulation of physical disability
same,Brain atrophy (percent brain volume change from baseline to end of treatment),0.6 mg daily oral,reduces brain atrophy
same,Fatigue (MFIS),0.6 mg daily oral,reduces the fatigue
same,General health status (SF-36),0.6 mg daily oral,improves the general health status
same,Prevention or delay of relapses,0.6 mg daily oral,prevents or delays relapses
same,Quality of life (EuroQoL EQ5D),0.6 mg daily oral,improves the quality of life
same,Severe relapses (requiring hospitalization or intravenous steroid treatment),0.6 mg daily oral,reduces the rate of severe relapses or the severity of relapses
same,Adverse effects,[1],"fewer adverse effects, less severe adverse effects"
same,Safety and tolerability profile,[1],favorable safety and tolerability profile
same,Number of confirmed relapses,"0.6 mg daily oral, vs placebo and Avonex arm",reduces the number of confirmed relapses
